{
  "source": "ChEMBL document CHEMBL2429761",
  "about": "“Discovery of ML314, a Brain Penetrant Non-Peptidic β-Arrestin Biased Agonist of the Neurotensin NTR1 Receptor” (ACS Med Chem Lett, 2013)",
  "key": {"[1]": {"biological_target": "T1, 5-hydroxytryptamine receptor 3A (Homo sapiens, UniProt P46098)", "T1 sequence (P46098 whole entry)": "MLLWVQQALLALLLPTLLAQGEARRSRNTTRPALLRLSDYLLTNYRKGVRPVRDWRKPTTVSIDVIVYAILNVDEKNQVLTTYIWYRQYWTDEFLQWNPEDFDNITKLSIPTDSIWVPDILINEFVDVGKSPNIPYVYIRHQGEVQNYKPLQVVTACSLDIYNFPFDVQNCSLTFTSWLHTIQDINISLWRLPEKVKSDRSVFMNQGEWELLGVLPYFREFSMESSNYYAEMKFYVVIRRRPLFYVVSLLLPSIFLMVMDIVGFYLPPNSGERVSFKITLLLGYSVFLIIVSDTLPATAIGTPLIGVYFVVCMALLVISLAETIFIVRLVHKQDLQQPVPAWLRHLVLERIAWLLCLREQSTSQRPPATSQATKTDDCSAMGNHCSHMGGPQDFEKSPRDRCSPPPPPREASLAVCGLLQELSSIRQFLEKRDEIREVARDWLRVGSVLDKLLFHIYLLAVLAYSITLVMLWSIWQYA", "test": "Binding affinity to 5-HT3 receptor (unknown origin)"}, "Liver": {"system": "Liver", "test": "Metabolic stability in mouse liver microsomes assessed as compound remaining at 1 to 10 uM after 1 hr by LC-MS/MS analysis", "assay_type": "ADME, Microsome"}, "Plasma [2]": {"system": "Plasma", "test": "Plasma protein binding in mouse at 1 uM after 4 hrs by LC-MS/MS analysis", "assay_type": "ADME, cell-free"}, "Plasma [3]": {"system": "Plasma", "test": "Metabolic stability in human plasma assessed as compound remaining at 1 uM after 3 hrs by LC-MS/MS analysis", "assay_type": "ADME, cell-free"}, "[4]": {"test": "Kinetic solubility of the compound in PBS buffer at 250 uM after 18 hrs at pH 7.4", "assay_type": "physicochemical", "conditions": "read-out: Kinetic_solubility"}, "[5]": {"biological_target": "T2, Alpha-1D adrenergic receptor (Homo sapiens) (UniProt P25100)", "T2 sequence (whole entry)": "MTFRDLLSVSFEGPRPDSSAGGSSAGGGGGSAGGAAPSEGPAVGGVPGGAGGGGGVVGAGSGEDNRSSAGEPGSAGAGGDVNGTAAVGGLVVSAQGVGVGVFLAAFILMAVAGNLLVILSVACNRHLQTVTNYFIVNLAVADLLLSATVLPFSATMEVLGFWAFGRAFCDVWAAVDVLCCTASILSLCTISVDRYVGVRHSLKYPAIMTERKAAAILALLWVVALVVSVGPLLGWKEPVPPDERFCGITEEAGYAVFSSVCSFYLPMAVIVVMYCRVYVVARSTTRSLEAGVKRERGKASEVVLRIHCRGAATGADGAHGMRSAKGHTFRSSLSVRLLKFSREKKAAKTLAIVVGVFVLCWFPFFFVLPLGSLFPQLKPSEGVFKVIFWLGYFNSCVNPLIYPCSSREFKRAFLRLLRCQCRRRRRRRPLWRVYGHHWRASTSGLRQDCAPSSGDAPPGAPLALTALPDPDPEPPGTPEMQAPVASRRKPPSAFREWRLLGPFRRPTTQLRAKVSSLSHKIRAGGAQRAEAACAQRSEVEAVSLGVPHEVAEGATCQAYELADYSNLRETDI", "test": "Binding affinity to adrenergic alpha1D receptor (unknown origin) at 10 uM relative to control"}, "[6]": {"test": "Hepatotoxicity in human Fa2N-4 cells after 24 hrs by luminescence assay", "assay_type": "toxicity, cell-based", "conditions": "fa2n-4, 24 h, read-out: LC50 (the source's name)"}, "[7]": {"biological_target": "Neurotensin receptor type 1 (Homo sapiens, UniProt P30989)", "sequence (P30989 whole entry)": "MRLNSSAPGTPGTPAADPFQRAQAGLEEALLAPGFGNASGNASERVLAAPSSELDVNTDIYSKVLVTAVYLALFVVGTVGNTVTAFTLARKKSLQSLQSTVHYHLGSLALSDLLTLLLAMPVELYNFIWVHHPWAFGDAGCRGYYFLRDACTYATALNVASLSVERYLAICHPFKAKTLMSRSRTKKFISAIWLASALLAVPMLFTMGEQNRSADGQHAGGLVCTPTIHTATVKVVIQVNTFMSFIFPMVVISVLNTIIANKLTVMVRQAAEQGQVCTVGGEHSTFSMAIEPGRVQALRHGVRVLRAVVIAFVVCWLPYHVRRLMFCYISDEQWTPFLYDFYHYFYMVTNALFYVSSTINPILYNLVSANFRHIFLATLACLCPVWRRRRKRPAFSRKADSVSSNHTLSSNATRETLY", "test": "Agonist activity at NTR1 (unknown origin) expressed in CHO cells assessed as stimulation of calcium flux", "assay_type": "functional, cell-based"}, "[8]": {"test": "Kinetic solubility of the compound in pION buffer at 250 uM after 18 hrs at pH 6.2", "assay_type": "physicochemical", "conditions": "read-out: Kinetic_solubility"}, "Plasma [9]": {"system": "Plasma", "test": "Plasma protein binding in mouse at 10 uM after 4 hrs by LC-MS/MS analysis", "assay_type": "ADME, cell-free"}, "Plasma [10]": {"system": "Plasma", "test": "Metabolic stability in mouse plasma assessed as compound remaining at 1 uM after 3 hrs by LC-MS/MS analysis", "assay_type": "ADME, cell-free"}, "[11]": {"test": "Effective permeability of the compound at 50 uM after 30 mins at donor pH 7.4 and acceptor pH 7.4 by PAMPA", "assay_type": "ADME", "conditions": "pH 7.4, 0.5 h"}},
  "data": [
    {"smiles": "COc1cc2nc(C3CC3)nc(N3CCN(c4ccccc4OC)CC3)c2cc1OC", "values": [
      {"measurement": "Ki", "setting": "[1]", "value": 1, "unit": "µM"},
      {"measurement": "Stability", "setting": "Liver", "value": 0.2, "unit": "%"},
      {"measurement": "PPB", "setting": "Plasma [2]", "value": 99.7, "unit": "%"},
      {"measurement": "Stability", "setting": "Plasma [3]", "value": 100, "unit": "%"},
      {"measurement": "solubility kinetic at 18 h, 250 µM", "setting": "[4]", "value": 1.1, "unit": "µM"},
      {"measurement": "Activity", "setting": "[5]", "value": 63, "unit": "%"},
      {"measurement": "CC50", "setting": "[6]", "value": 29.6, "unit": "µM"},
      {"measurement": "EC50", "setting": "[7]", "value": "> 80", "unit": "µM"},
      {"measurement": "solubility kinetic at 18 h, 250 µM", "setting": "[8]", "value": 21.4, "unit": "µM"},
      {"measurement": "PPB", "setting": "Plasma [9]", "value": 98.9, "unit": "%"},
      {"measurement": "Stability", "setting": "Plasma [10]", "value": 99.6, "unit": "%"},
      {"measurement": "Peff", "setting": "[11]", "value": 2090, "unit": "×10⁻⁶ cm/s"}
    ]}
  ]
}
